Assay results taken from patent US20240240226A1, “FLUOROGENIC ASSAY FOR RAPID SCREENING OF BACTERIAL BETA-LACTAMASE ACTIVITY” (The Board of Trustees of the Leland Stanford Junior …, priority 2021, published 2024).

Experiments:
[1] = Stability test in H2O2 in PBS; type: physicochemical; settings: room temperature
Procedure: FIG. 2 illustrates the characterization of CDA with recombinant TEM-1 Bla, esterase, HRP, and H2O2. a) Stability test of CDA in different concentrations of H2O2 in PBS. The signal of PBS was subtracted and the absolute values were plotted. b) Fluorescence enhancement of CDA treated with esterase […], TEM-1 Bla (100 nM) and H2O2 (100 μM or 1 mM). c) Activation of CDA by esterase (1 μg/mL) and TEM-1 Bla (100 nM) with or without oxygen in the reaction. Glass flasks with working solution were continuously vacuumed to maintain a deoxidized environment. Samples were transferred and scanned immediate at each time point in a black 96 well plate. Error bars represent ±SD, n=3. d) Fluorescence enhancement of CDA treated with esterase (1 μg/mL), TEM-1 Bla (100 nM), HRP (1 unit/ml), and H2O2 (1 μM). e) Fluorescence enhancement of different concentrations of CDA treated with esterase (1 μg/mL), TEM-1 Bla (100 nM) and H2O2 (1 mM). f) Fluorescence enhancement of CDA treated with indicated amounts of β-lactamases, esterase (1 μg/mL) and H2O2 (1 mM) after incubation at room temperature for 2 h. […] Data were collected on a Tecan Safire microplate reader with excitation at 570 nm and emission at 600 nm. […]
As oxidation is the essential step in converting β-lactamase/esterase processed CDA to resorufin, the stability of CDA was evaluated in different concentrations of H2O2 (FIG. 2a). […]

[2] = tested on: E. coli; test: Two-step filtration CDA/H2O2 urine assay, negative control E. coli; type: cell-based; settings: E. coli without β-lactamase, concentrated from urine
Procedure: FIG. 4 illustrates the detection of lactam-resistant bacteria in urine samples. a) Illustration of the workflow in bacteria isolation and concentration from a urine sample for detection. The sample is first filtrated by a 5-μm filter to trap cells and large debris followed by a 0.22-μm filter to trap bacteria. The 0.22-μm filter is washed once before PBS/H2O2 (1 mM) is directed through the 0.22-μm filter in the opposite direction with a new syringe to recover the concentrated bacteria for detection in a plate reader. b) Longitudinal monitoring of fluorescence enhancement with CDA and concentrated E. coli, K. pneumoniae, K. pneumoniae/KPC, E. coli/TEM-1, E. coli/IMP-1, E. coli/KPC-3, E. cloacae/IMP, S. marcescens/SME, and E. coli/OXA-48 in the presence of H2O2 (1 mM). Star* indicate clinical isolates. The study was duplicated at room temperature with PBS as the buffer. The signal of CDA alone in PBS containing H2O2 (1 mM) was subtracted and the absolute values were plotted. The working concentration of CDA was 10 μM. Data were collected on a Tecan Safire microplate reader with excitation at 570 nm and emission at 600 nm. A.U. indicates arbitrary units. […]

In the case of `CC(=O)Oc1ccc2c(c1)Oc1cc(OC(C)=O)ccc1N2C(=O)OCc1ccc(SCC2=C(C(=O)O)N3C(=O)[C@@H](NC(=O)Cc4ccccc4)[C@H]3SC2)cc1` [CDA, 3-(((4-(((3,7-diacetoxy-10H-phenoxazine-10-carbonyl)oxy)methyl)phenyl)thio)methyl)-8-oxo-7-(2-phenylacetamido)-5-thia-1-azabicyclo[4.2.0]oct-2-ene-2-carboxylic acid], the “stability of the sulfur center in H2O2 (LC-MS)” value ([1]; H2O2 1 mM, 2 hours) is reported as “stable”, the “spontaneous hydrolysis in H2O2” value ([1]; up to 1 mM H2O2 in PBS, within 2 hours) is reported as “Almost no spontaneous hydrolysis” and the “fluorescent signal of negative control” value [2] is reported as “slightly increased signal”.
